Results on 14 compounds are retold here after US9428505B2, “Hydantoin derivative” (Chugai Seiyaku Kabushiki Kaisha, priority 2012, dated 2016).

The target in one data set is human PTH1R (Homo sapiens (Human), UniProt Q03431). Put plainly: In vitro cAMP signal activity via the human PTH1R (HKRK-B7 cells). The class given is cell-based. Particulars: 100 nM human PTH(1-34) = 100%; for EC20: concentration giving 20% cAMP signaling activity; for EC50: concentration giving 50% cAMP signaling activity. As to the method: Measurement of In Vitro cAMP Signal Activity of Compounds Via the Human PTH1R
Chain of human PTH1R (Q03431 27-593): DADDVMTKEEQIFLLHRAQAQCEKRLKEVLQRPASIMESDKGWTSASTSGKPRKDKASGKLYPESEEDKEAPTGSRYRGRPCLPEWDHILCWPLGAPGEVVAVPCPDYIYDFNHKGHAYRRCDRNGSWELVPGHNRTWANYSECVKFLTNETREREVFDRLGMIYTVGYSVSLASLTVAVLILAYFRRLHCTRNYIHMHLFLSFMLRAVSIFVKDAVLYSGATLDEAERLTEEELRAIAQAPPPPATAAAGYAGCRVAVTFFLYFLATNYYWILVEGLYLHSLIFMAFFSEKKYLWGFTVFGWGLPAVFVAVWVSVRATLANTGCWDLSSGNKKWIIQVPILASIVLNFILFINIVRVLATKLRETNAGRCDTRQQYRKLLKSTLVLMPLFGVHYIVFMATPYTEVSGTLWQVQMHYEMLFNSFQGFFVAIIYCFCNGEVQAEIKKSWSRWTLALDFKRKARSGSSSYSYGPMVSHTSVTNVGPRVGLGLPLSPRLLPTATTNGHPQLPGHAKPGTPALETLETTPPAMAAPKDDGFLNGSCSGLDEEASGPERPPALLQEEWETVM
Human PTH(1-34) and calcitonin were purchased from Peptide Institute, Inc. (Osaka, Japan), dissolved in 10 mM acetic acid to 1 mM and stored in a −80° C. freezer.
Cells were cultured in Dulbecco's modified Eagle's medium (DMEM) supplemented with 10% fetal bovine serum (Hyclone), 100 units/ml penicillin G and 100 μg/ml streptomycin sulfate (Invitrogen Corp) at 37° C. in a humidified atmosphere containing 5% CO2.
cAMP signal transduction analysis utilized LLC-PK1 cells not expressing the PTH1R, and HKRK-B7 cells, that is, LLC-PK1 cells overexpressing the human PTH1R at 9.5×10^5 receptors/cell (Takasu et al., J. Bone. Miner. Res. 14:11-20, 1999).
HKRK-B7 or LLC-PK1 cells were seeded into a 96-well plate at 1×10^5 cells/well and incubated overnight. On the following day, 50 μl of cAMP assay buffer (DMEM, 2 mM IBMX, 0.2 mg/ml bovine serum albumin, 35 mM Hepes-NaOH, pH 7.4) containing human PTH(1-34) or each compound was added and the plate was placed in a 37° C. incubator. The cells were incubated for 20 minutes. After removing the medium, the cells were washed with 100 μl of cAMP assay buffer once. The plate was placed on dry ice powder to freeze the cells and then removed from the dry ice. The cells were lysed with 40 μl of 50 mM HCl and frozen again on dry ice. The amount of intracellular cAMP produced was measured using a commercially available cAMP EIA kit (Biotrack cAMP EIA system, GE health care).
Analyses were performed using a variable gradient S-shaped dose-response curve equation.

The nature of data set [1]: Metabolic stability using rat hepatocyte. Format: in vitro ADME. Particulars: for hepatocyte CLint at 1 μM: rat (SD, female) hepatocytes 1×10^6 cells/mL, compound 1 μM, 37° C., read-out: Clearance; for rat hepatocyte metabolic stability compared to Comparative Examples 1, 2, 3, 5, and 6: rat hepatocytes. As to the method: Examination of Metabolic Stability Using Rat Hepatocyte
Liver cells were prepared from the liver of rats (SD, female) by a collagenase perfusion method. A compound of the Examples or a Comparative Example was added, and this was incubated at 37° C. for a specified amount of time, followed by addition of a reaction-stopping solution. The concentration of the parent compound at each reaction time was measured using LC/MS/MS, and inherent clearance (μL/10^6 cells/min) was calculated from the slope of the reaction time versus residual rate.
Cell concentration: 1×10^6 cells/mL
(§1) Compound concentration: 1 μM
Medium: Williams' medium E
Reaction-stopping solution: acetonitrile/2-propanol (4/6, v/v)

Data set [2] is described as follows: Metabolic stability using human liver microsomes. Format: in vitro ADME. To be noted: pH 7.4; human liver microsomes 0.5 mg/mL, compound 1 μM, NADPH 1 mM, 37° C.; read-out: Clearance. As to the method:
Examination of Metabolic Stability Using Human Liver Microsomes
In 0.1 M phosphate buffer (pH7.4), human liver microsomes were incubated with a compound or a comparative example in the coexistence of NADPH at 37° C. for a specified amount of time. The concentration of the parent compound at each reaction time was measured using LC/MS/MS, and inherent clearance (μL/min/mg protein) was calculated from the slope of the reaction time versus residual rate.
as §1
Reaction time: 0, 5, 15, and 30 minutes
For orientation: Liver microsomes are vesicles of endoplasmic reticulum, rich in cytochrome P450 enzymes.

Another data set concerns TPTX rat model. The experiment in a line: Calcemic action in the TPTX rat model. Particulars: TPTX rats, oral 30 mg/kg. The class given is in vivo. As for the experimental part:
Calcemic Action in the TPTX Rat Model
Four-week old female Crl:CD(SD) rats were obtained from Charles River Japan (Atsugi Breeding Center), and were acclimated to standard laboratory conditions of 20-26° C. and 35-75% humidity for one week. The rats were given tap water and were fed ad libitum with standard rodent chow (CE-2) (CLEA Japan, Inc.) containing 1.1% calcium, 1.0% phosphoric acid, and 250 IU/100 g of vitamin D3.
TPTX was performed on five-week old rats. Some of the individuals were subjected to sham operation (Sham). Individuals whose serum Ca concentration was less than 8 mg/dL on four days after the operation were selected for use as TPTX rats. On five days after the operation, the rats were assigned to eight TPTX groups and one Sham group (n=5, each group) based on their body weight and serum Ca concentration measured on four days after the operation. The solvent alone was orally administered to the Sham group and the TPTX-Vehicle group at a volume of 10 mL/kg. Each test article was orally administered individually to each TPTX test article group by dissolving it in a solvent at a dose of 30 mg/10 mL/kg. The solvent composition was 10% dimethylsulfoxide (Wako Pure Chemical Industries, Ltd.), 10% Cremophor EL (Sigma-Aldrich Japan LLC), 20% hydroxypropyl-β-cyclodextrin (Nihon Shokuhin Kako Co., Ltd.), glycine (Wako Pure Chemical Industries, Ltd.); and the pH was adjusted to 10. Immediately before administration of each sample, Pre-blood collection was performed, and blood collection was carried out at 2, 6, 10, and 24 hours after administration to measure the serum Ca concentration. Each blood collection was carried out from the jugular vein under isoflurane inhalation anesthesia.
Serum Ca measurement: Serum obtained by centrifugation from the collected blood was measured by using an automatic analyzer TBA-120FR (Toshiba Medical Systems Corporation).
For statistical analysis of the animal studies, data are shown as mean±standard error (SE). Statistical analysis were performed by unpaired test of the SAS Preclinical Package (Ver. 5.00.010720, SAS Institute Japan, Tokyo, Japan).

Usually EC20 stands for the concentration at which the effect reaches the 20% level. For `CCC1CCC(C2=NC3(CCN(S(=O)(=O)CCc4ccc(N5C(=O)NC(=O)C5(C)C)cc4C)CC3)C(=O)N2)CC1` (centres unmarked) [Comparative Example 6, reference compound], the EC20 at human PTH1R amounted to 3.6 µM. Further, the hepatocyte CLint at 1 μM in data set [1] worked out at 22 µL/min/1e6 cells. Moreover, the microsomal CLint at 1 μM in data set [2] was found to be 154 µL/min/mg.

`Cc1cc(N2C(=O)NC(=O)C2(C)C)cc(C)c1CCS(=O)(=O)N1CCC2(CC1)N=C(c1ccc(F)c(C(F)(F)F)c1)NC2=O` [Compound 3, 1-(4-(2-((2-(4-fluoro-3-(trifluoromethyl)phenyl)-4-oxo-1,3,8-triazaspiro[4.5]deca-1-en-8-yl)sulfonyl)ethyl)-3,5-dimethylphenyl)-5,5-dimethylimidazolidine-2,4-dione]: the hepatocyte CLint at 1 μM in data set [1] was 17 µL/min/1e6 cells. Further, the microsomal CLint at 1 μM in data set [2] worked out at 29 µL/min/mg.

Usually EC50 stands for the concentration that produces a half-maximal response. A higher EC50 goes with lower potency in that assay. For the compound `Cc1cc(N2C(=O)NC(=O)C2(C)C)cc(C)c1CCS(=O)(=O)N1CCC2(CC1)N=C(c1ccc(F)c(OC(F)(F)F)c1)NC2=O` [Compound 1, 1-(4-(2-((2-(4-fluoro-3-(trifluoromethoxy)phenyl)-4-oxo-1,3,8-triazaspiro[4.5]deca-1-en-8-yl)sulfonyl)ethyl)-3,5-dimethylphenyl)-5,5-dimethylimidazolidine-2,4-dione], in the data set on TPTX rat model, the “achievement of therapeutic target range of serum Ca concentration of 7.6 to 8.8 mg/dL” value is “could not be achieved”. In addition, in the data set with TPTX rat model (up to 24 hours after administration), the “change of serum Ca concentration from the Pre-value” is “smaller positive changes from the Pre-value”. On human PTH1R, the EC20 is 1.3 µM and it took 5.8 µM to reach a half-maximal effect (EC50). Also, in data set [1], the hepatocyte CLint at 1 μM worked out at 7.6 µL/min/1e6 cells. The microsomal CLint at 1 μM in data set [2] came to 21 µL/min/mg.

`CCC1CCC(C2=NC3(CCN(S(=O)(=O)CCc4ccc(N5CC(=O)NC5=O)cc4C)CC3)C(=O)N2)CC1` (centres unmarked) [Comparative Example 4, reference compound] had an EC20 at human PTH1R greater than 505 µM. The microsomal CLint at 1 μM in data set [2] stood at 74 µL/min/mg.

On human PTH1R, `Cc1cc(N2C(=O)NC(=O)C2(C)C)cc(C)c1CCS(=O)(=O)N1CCC2(CC1)N=C(c1cccc(Br)c1)NC2=O` [Compound 2, 1-(4-(2-((2-(3-bromophenyl)-4-oxo-1,3,8-triazaspiro[4.5]deca-1-en-8-yl)sulfonyl)ethyl)-3,5-dimethylphenyl)-5,5-dimethylimidazolidine-2,4-dione] had an EC20 of 2.4 µM and an EC50 of 14 µM. Further, in data set [1], the hepatocyte CLint at 1 μM was found to be 3 µL/min/1e6 cells; the “rat hepatocyte metabolic stability compared to Comparative Examples 1, 2, 3, 5, and 6” value is given as “increased”. Moreover, the microsomal CLint at 1 μM in data set [2] is 38 µL/min/mg.

Compound `CC[C@H]1CC[C@H](C2=NC3(CCN(S(=O)(=O)CCc4ccc(N5C(=O)NC(=O)C5(C)C)cc4C)CC3)C(=O)N2)CC1` [Comparative Example 6, reference compound] showed an EC50 on human PTH1R of 32 µM.

As for `Cc1cc(N2C(=O)CNC2=O)cc(C)c1CCS(=O)(=O)N1CCC2(CC1)N=C(c1ccc(F)c(C(F)(F)F)c1)NC2=O` [Comparative Example 3, reference compound], at human PTH1R, the EC20 was found to be 2.0 µM and the EC50 was 9 µM. In addition, in data set [1], the hepatocyte CLint at 1 μM came out at 22 µL/min/1e6 cells. The microsomal CLint at 1 μM in data set [2] turned out to be 74 µL/min/mg.

Compound `CCC1CCC(C2=NC3(CCN(S(=O)(=O)CCc4ccc(N5C(=O)NC(=O)C5C)cc4C)CC3)C(=O)N2)CC1` (centres unmarked) [Comparative Example 5, reference compound] showed an EC20 on human PTH1R of 3.1 µM. The hepatocyte CLint at 1 μM in data set [1] is 22 µL/min/1e6 cells. In addition, the microsomal CLint at 1 μM in data set [2] was determined as 112 µL/min/mg.

`CC[C@H]1CC[C@H](C2=NC3(CCN(S(=O)(=O)CCc4ccc(N5CC(=O)NC5=O)cc4C)CC3)C(=O)N2)CC1` [Comparative Example 4, reference compound] displayed an EC50 at human PTH1R greater than 1000 µM.

For the compound `Cc1cc(N2C(=O)NC(=O)C23CCN(C)CC3)cc(C)c1CCS(=O)(=O)N1CCC2(CC1)N=C(c1ccc(OC(F)(F)F)cc1)NC2=O` [Compound 9, 1-(3,5-dimethyl-4-(2-((4-oxo-2-(4-(trifluoromethoxy)phenyl)-1,3,8-triazaspiro[4.5]deca-1-en-8-yl)sulfonyl)ethyl)phenyl)-8-methyl-1,3,8-triazaspiro[4.5]decane-2,4-dione], at human PTH1R, the EC20 worked out at 2.6 µM and it took 12 µM to reach a half-maximal effect (EC50). In data set [1], the hepatocyte CLint at 1 μM came out at 1.8 µL/min/1e6 cells; the “rat hepatocyte metabolic stability compared to Comparative Examples 1, 2, 3, 5, and 6” value is “increased”. The microsomal CLint at 1 μM in data set [2] is 28 µL/min/mg.

At human PTH1R, `Cc1cc(N2C(=O)NC(=O)C2(C)C)cc(C)c1CCS(=O)(=O)N1CCC2(CC1)N=C(c1ccc(OC(F)(F)F)c(F)c1)NC2=O` [Compound 4, 1-(4-(2-((2-(3-fluoro-4-(trifluoromethoxy)phenyl)-4-oxo-1,3,8-triazaspiro[4.5]deca-1-en-8-yl)sulfonyl)ethyl)-3,5-dimethylphenyl)-5,5-dimethylimidazolidine-2,4-dione] returned an EC20 of 1.6 µM and a half-maximal effective concentration (EC50) of 7.4 µM. In data set [1], the hepatocyte CLint at 1 μM was found to be 2.2 µL/min/1e6 cells; the “rat hepatocyte metabolic stability compared to Comparative Examples 1, 2, 3, 5, and 6” value is reported as “increased”. The microsomal CLint at 1 μM in data set [2] was determined as 27 µL/min/mg.

As to `Cc1cc(N2C(=O)NC(=O)C23CCCC3)cc(C)c1CCS(=O)(=O)N1CCC2(CC1)N=C(c1cccc(C(F)(F)F)c1)NC2=O` [Compound 12, 1-(3,5-dimethyl-4-(2-((4-oxo-2-(3-(trifluoromethyl)phenyl)-1,3,8-triazaspiro[4.5]deca-1-en-8-yl)sulfonyl)ethyl)phenyl)-1,3-diazaspiro[4.4]nonane-2,4-dione], the microsomal CLint at 1 μM in data set [2] is 63 µL/min/mg.

Regarding `CC[C@H]1CC[C@H](C2=NC3(CCN(S(=O)(=O)CCc4ccc(N5C(=O)NC(=O)C5C)cc4C)CC3)C(=O)N2)CC1` (some centres unmarked) [Comparative Example 5, reference compound], at human PTH1R, the EC50 was 25 µM. This lies in the double-digit micromolar range.

With `Cc1cc(N2C(=O)NC(=O)C2(C)C)cc(C)c1CCS(=O)(=O)N1CCC2(CC1)N=C(c1ccc3c(c1)OC(F)(F)O3)NC2=O` [Compound 5, 1-(4-(2-((2-(2,2-difluorobenzo[d][1,3]dioxol-5-yl)-4-oxo-1,3,8-triazaspiro[4.5]deca-1-en-8-yl)sulfonyl)ethyl)-3,5-dimethylphenyl)-5,5-dimethylimidazolidine-2,4-dione], at human PTH1R, the EC20 came to 1.7 µM and the EC50 was 8.1 µM. In data set [1], the hepatocyte CLint at 1 μM was found to be 1 µL/min/1e6 cells; the “rat hepatocyte metabolic stability compared to Comparative Examples 1, 2, 3, 5, and 6” value is listed as “increased”. Further, the microsomal CLint at 1 μM in data set [2] is 37 µL/min/mg.
